From patent publication US20230151336A1, “STEM CELL DERIVED SINGLE-ROSETTE BRAIN ORGANOIDS AND RELATED USES THEROF” (The Regents of the University of Michigan, priority 2020, published 2023)

Key:
Format in all cases: cell-based, human
ventral SOSRS = experiment: Ventral SOSRS patterning (immunostaining, size)
Method: For ventral SOSRS differentiation, no cyclopamine or CHIR99021 were used. After plating onto Geltrex, 1 μM SAG and 2 μM XAV939 were added the culture media for 1 week. All other procedures were performed identically (FIG. 5).
SOSRS imaged before day 11 were grown on Nunc™ Lab-Tek™ III 8-well chamber slides (Thermo Scientific) and were fixed in paraformaldehyde for 30 min at room temperature (RT). After permeabilization with 0.2% Triton-X 100 for 20 min at RT, cells were incubated in PBS containing 5% normal goat serum with 1% BSA and 0.05% Triton-X100 for 1 h at RT. Older SOSRS were fixed for 30 minutes in suspension and incubated in 30% sucrose overnight at 4 C followed by embedding in TFM medium and freezing on dry ice. The blocks were sectioned on a Cryostat with 20 μM section thickness. All samples were incubated in primary antibody overnight (see Supplemental Table 2 for antibodies and dilutions) in the same blocking buffer at 4° C., washed 4 times in PBS with 0.05% Tween-20 (PBST), and incubated for 90 min with secondary antibody. Cells were washed 3 times in PBST and incubated with bisbenzimide for 5 min. After additional PBS washes, coverslips were mounted on slides with Glycergel mounting medium (Agilent Dako). Images were obtained on a Leica SP5 upright DMI 6000 confocal microscope. […]

[1] = tested on: self-organizing single-rosette spheroids (SOSRS); experiment: SOSRS neuroteratogen screening (structural read-out of lumen/neurulation)
Method: iPSC lines were passaged using Accutase (Innovative cell) and replated onto Geltrex-coated (1:50 dilution in DMEM/F12) 12-well plates at 1.5-2×10^5 cells/well in mTeSR1 with 10 μM rho-kinase inhibitor (Y-27632; Tocris, 1254). The medium without the inhibitor was replaced daily until the cells reach 80-100% confluency. The medium was then changed to 3N (50:50 DMEM/F12:neurobasal with N2 and B27 supplements) (see, Shi, Y., et al., Nature Neuroscience 15, 477-486 (2012)) without vitamin A with 2 μM DMH1 (Tocris, 4126), 2 μM XAV939 (Cayman Chemical, 13596), and 10 μM SB431542 (Cayman Chemical, 13031) (4 mL of medium per well). 75% of this medium was changed daily with 1 μM cyclopamine (Cayman Chemical, 11321) added beginning on day 1. On day 4, the monolayer was cut into squares using the StemPro EZ passage tool. The squares were then washed once with PBS and incubated for 2 minutes with L7 hPSC passaging solution (Lonza). After aspirating the L7 solution, the squares were sprayed off the bottom with the same culture medium 1 mL of preconditioned culture media with a P1000 micropipette. An additional 2 mL of fresh culture medium with the 4 inhibitors was added for a final volume of 3 mL. Approximately 200 μL of resuspended squares were then transfer into the wells of 96-well plates preincubated at 37° C. for 20 minutes with 30 μL of 100% Geltrex solution in each well. Up to 16 wells can be made using one monolayer well. Higher densities will result in fusion between nearby SOSRS forming multi-rosette doublets or “strings”. After 48 hours, daily 50% media changes were performed. On day 6 overall (2 days after cutting), the four inhibitors were no longer added but replaced with the 3 μM CHIR99021. After 3-4 additional days of culture, the wells were washed once with PBS and incubated for 2 minutes with L7 solution. The organoids were individually removed using the STRIPPER (Cooper Surgical) with 275 μM tips and plated individually in the wells of a low-adherence U-bottom 96-well plate with 200 μL of 3N medium without vitamin A with 3 μM CHIR99021, BDNF (20 ng/mL), and NT3 (20 ng/mL). Ideal diameters for picking the SOSRS are between 250-300 μM. Two days later half-fold media changes with 3N with vitamin A, BDNF (20 ng/mL), and NT3 (20 ng/mL) and repeated every other day. After 35 days of differentiation, 3N media with vitamin A without neurotrophic factors (BDNF and NT3) is used for half-fold media changes every other day. Around this time, SOSRS are transferred from the low-adherence 96-well plate to a low-adherence 24 well plate for a necessary increase in media volume due to SOSRS size.
SOSRS imaged before day 11 were grown on Nunc™ Lab-Tek™ III 8-well chamber slides (Thermo Scientific) and were fixed in paraformaldehyde for 30 min at room temperature (RT). After permeabilization with 0.2% Triton-X 100 for 20 min at RT, cells were incubated in PBS containing 5% normal goat serum with 1% BSA and 0.05% Triton-X100 for 1 h at RT. Older SOSRS were fixed for 30 minutes in suspension and incubated in 30% sucrose overnight at 4 C followed by embedding in TFM medium and freezing on dry ice. The blocks were sectioned on a Cryostat with 20 μM section thickness. All samples were incubated in primary antibody overnight (see Supplemental Table 2 for antibodies and dilutions) in the same blocking buffer at 4° C., washed 4 times in PBS with 0.05% Tween-20 (PBST), and incubated for 90 min with secondary antibody. Cells were washed 3 times in PBST and incubated with bisbenzimide for 5 min. After additional PBS washes, coverslips were mounted on slides with Glycergel mounting medium (Agilent Dako). Images were obtained on a Leica SP5 upright DMI 6000 confocal microscope.
This 3D model of human neurulation allowed us to test known neuroteratogens that block a specific pathway necessary for proper neural tube formation. These were the rho-kinase inhibitor, Y-27632, and the non-muscle myosin inhibitor, blebbistatin^26, 27. […]

[2] = tested on: self-organizing single-rosette spheroids (SOSRS); experiment: SOSRS cell death and growth during dorsal differentiation
Method: iPSC lines were passaged using Accutase (Innovative cell) and replated onto Geltrex-coated (1:50 dilution in DMEM/F12) 12-well plates at 1.5-2×10^5 cells/well in mTeSR1 with 10 μM rho-kinase inhibitor (Y-27632; Tocris, 1254). The medium without the inhibitor was replaced daily until the cells reach 80-100% confluency. The medium was then changed to 3N (50:50 DMEM/F12:neurobasal with N2 and B27 supplements) (see, Shi, Y., et al., Nature Neuroscience 15, 477-486 (2012)) without vitamin A with 2 μM DMH1 (Tocris, 4126), 2 μM XAV939 (Cayman Chemical, 13596), and 10 μM SB431542 (Cayman Chemical, 13031) (4 mL of medium per well). 75% of this medium was changed daily with 1 μM cyclopamine (Cayman Chemical, 11321) added beginning on day 1. On day 4, the monolayer was cut into squares using the StemPro EZ passage tool. The squares were then washed once with PBS and incubated for 2 minutes with L7 hPSC passaging solution (Lonza). After aspirating the L7 solution, the squares were sprayed off the bottom with the same culture medium 1 mL of preconditioned culture media with a P1000 micropipette. An additional 2 mL of fresh culture medium with the 4 inhibitors was added for a final volume of 3 mL. Approximately 200 μL of resuspended squares were then transfer into the wells of 96-well plates preincubated at 37° C. for 20 minutes with 30 μL of 100% Geltrex solution in each well. Up to 16 wells can be made using one monolayer well. Higher densities will result in fusion between nearby SOSRS forming multi-rosette doublets or “strings”. After 48 hours, daily 50% media changes were performed. On day 6 overall (2 days after cutting), the four inhibitors were no longer added but replaced with the 3 μM CHIR99021. After 3-4 additional days of culture, the wells were washed once with PBS and incubated for 2 minutes with L7 solution. The organoids were individually removed using the STRIPPER (Cooper Surgical) with 275 μM tips and plated individually in the wells of a low-adherence U-bottom 96-well plate with 200 μL of 3N medium without vitamin A with 3 μM CHIR99021, BDNF (20 ng/mL), and NT3 (20 ng/mL). […]

[3] = addition from day 6-10, 3 μM, FIG. 2

Compound	apical end-feet surface areas (ZO-1) [1]	lumen circularity [1]	lumen/total area [1]	other results
Oc1nc(-c2ccc(C(F)(F)F)cc2)nc2c1CSCC2 [XAV939, 3,5,7,8-Tetrahydro-2-[4-(trifluoromethyl)phenyl]-4H-thiopyrano[4,3-d]pyri-midin-4-one]				SOSRS size and MGE specification (ventral SOSRS; continued day 7 to day 14 with SAG, data not shown): increase
Cc1ccc2c(c1)C(=O)C1(O)CCN(c3ccccc3)C1=N2 (stereo not drawn) [blebbistatin]	increased	decreased	increased	
CC(/C=C/C(=O)NO)=C\[C@@H](C)C(=O)c1ccc(N(C)C)cc1 [TSA]				replication of the VPA effect on ratio of lumen area to SOSRS area [1]: not replicated
CNC1CCC(N(Cc2cccc(-c3ccncc3)c2)C(=O)c2sc3ccccc3c2Cl)CC1 (stereo not drawn) [SAG]				NKX2.1/FOXG1 positive cells (ventral SOSRS; one-month SOSRS, SAG instead of CHIR99021 from day 7 to day 14, XAV939 continued): ~100%
C[C@@H](N)[C@H]1CC[C@H](C(=O)Nc2ccncc2)CC1 [Y-27632]	increased	decreased	increased	
Cc1c[nH]c(-c2cnc(NCCNc3ccc(C#N)cn3)nc2-c2ccc(Cl)cc2Cl)n1 [CHIR99021]				SOSRS growth [2, 3]: grow more rapidly; cell death around SOSRS perimeter [2, 3]: blocked the majority of cell death; PAX6 positive cells ([2]; pulse day 6-10, FIGS. 1i and j): rapid expansion
